“Also recorded” adds a separate entry of the source. Ends that are not written are not given here.
Tests used:
S. pneumoniae = assay: MIC test / antimicrobial activity, S. pneumoniae; assay type: cell-based, Streptococcus pneumoniae
Protocol: (§1) The active AMPs, STAMPs and the like can be identified and/or validated using an in vitro screening assay.
(§2) It will be appreciated that other assays as are well known in the art or that will become apparent to those having skill in the art upon review of this disclosure may also be used to identify active AMPs. Such assays include, for example, the assay described in Lehrer et al. (1988) J. Immunol.
(§3) Peptides were evaluated for basic antimicrobial activity by broth microdilution, as described previously (Eckert et al. (2006) Antimicrob Agents Chemother., 50: 3651-3657; Eckert et al. (2006) Antimicrob Agents Chemother., 50: 1480-1488). Briefly, ˜1×10^5 cfu/mL bacteria were diluted in TH (S. mutans), or Mueller-Hinton (MH) broth (all other organisms) and distributed to 96-well plates. Serially-diluted (2-fold) peptides were then added and the plates incubated at 37° C. for 18-24 h. […] All experiments were conducted 10 times.

microorganisms [1] = assay: Targeting peptide binding to target microorganisms (Tables 3, 10, 12); conditions: microorganism(s) the targeting peptide binds; binding in aqueous buffers varied with peptide solubility, preferably 1x PBS
microorganisms [2] = assay: Peptide activities: targeting/binding, antimicrobial, growth or phenotype altering (Tables 7, 8); assay type: cell-based; conditions: peptides having multiple activities
microorganisms [3] = assay: Morphology, biofilm and growth disrupting peptides (Table 5); assay type: cell-based; set-up: key: A: Peptide aggregates; B: Less hyphal formation; Clumps; Diffuse clumps and small polyps; F: Diffuse growth; H: Thin; I: Growth inhibition; Microcolony formation; Rippled; Small polyps; Thick; W: Halo formation on top, microlonies on bottom
Source text: In certain embodiments peptides that induce alterations in phenotype or other biological activities can also be used as antimicrobial effector moieties.

S. mutans = assay: MIC test (broth microdilution) / antimicrobial activity, S. mutans; assay type: cell-based, Streptococcus mutans
Protocol: as §1, §2, §3

B. subtilis = assay: MIC test / antimicrobial activity, B. subtilis; assay type: cell-based, Bacillus subtilis; conditions: B. subtilis
Protocol: as §1, §2, §3

ASKQASKQASKQASKQASKQASRSLKNHLL [PF-523]
Organism MIC (μM) (S. pneumoniae): S. pneumoniae, 50 μM | Target(s) (microorganisms [1]): S. epidermidis; also recorded: M. luteus; also recorded: C. albicans; also recorded: S. pneumoniae; also recorded: C. jeikeium; also recorded: C. jejuni | Activities (microorganisms [2]): B M

CGKLLEQKNFFLKTR [PF-521]
Organism MIC (μM) (S. pneumoniae): S. pneumoniae, 50 μM | Target(s) (microorganisms [1]): S. epidermidis; also recorded: E. coli; also recorded: P. aeruginosa; also recorded: S. pneumoniae; also recorded: E. faecalis | Organism, effect (microorganisms [3]; S. pneumoniae): S. pneumoniae (H) | Activities (microorganisms [2]): G B M

FIRKFLKKWLL [K-9]
Organism MIC (μM) (S. mutans): S. mutans, 4 μM

FLKFLKKFFKKLKY [K-20]
Organism MIC (μM) (S. mutans): S. mutans, 8 μM

FQKPFTGEEVEDFQDDDEIPTII [PF-437]
Organism MIC (μM) (S. pneumoniae): S. pneumoniae, 50 μM | Organism, effect (microorganisms [3]; S. pneumoniae): S. pneumoniae (I) | Activities (microorganisms [2]): G M

FTRKFLKFLHL [K-17]
Organism MIC (μM) (S. mutans): S. mutans, 8 μM

GIFKKFVKILYKVQKL [K-22]
Organism MIC (μM) (S. mutans): S. mutans, 8 μM

GILKKLFTKVF [K-13]
Organism MIC (μM) (S. mutans): S. mutans, 16 μM

GIVLIGLKLIPLLANVLR [PF-322]
Organism MIC (μM) (B. subtilis): B. subtilis, 50 μM | Organism, effect: B. subtilis (microorganisms [3]): B. subtilis (H) | Organism, effect: S. epidermidis (microorganisms [3]): S. epidermidis (C) | Activities (microorganisms [2]): G M

GLGRVIGRLIKQIIWRR [K-1]
Organism MIC (μM) (S. mutans): S. mutans, 25 μM

GWLKMFKKIIGKFGKF [K-21]
Organism MIC (μM) (S. mutans): S. mutans, 8 μM

KILKFLFKKVF [K-8]
Organism MIC (μM) (S. mutans): S. mutans, 4 μM

KILKFLFKQVF [K-11]
Organism MIC (μM) (S. mutans): S. mutans, 4 μM

KILKKLFKFVF [K-12]
Organism MIC (μM) (S. mutans): S. mutans, 8 μM

KKFKKFKVLKIL [K-18]
Organism MIC (μM) (S. mutans): S. mutans, 16 μM

KLFKFLRKHLL [K-10]
Organism MIC (μM) (S. mutans): S. mutans, 4 μM

LGLTAGVAYAAQPTNQPTNQPTNQPTNQPTNQPTNQPRW-NH2 [PF-520]
Organism MIC (μM) (S. pneumoniae): S. pneumoniae, 50 μM | Organism, effect (microorganisms [3]; S. pneumoniae): S. pneumoniae (M) | Activities (microorganisms [2]): G B M

LLKLLKLKKLKF [K-19]
Organism MIC (μM) (S. mutans): S. mutans, 16 μM

LRKFLHKLF [K-14]
Organism MIC (μM) (S. mutans): S. mutans, 8 μM

LRKNLRWLF [K-15]
Organism MIC (μM) (S. mutans): S. mutans, 4 μM

LVLRICTDLFTFIKWTIKQRKS [PF-497]
Target(s) (microorganisms [1]): S. mutans; also recorded: B. subtilis; also recorded: E. coli | Organism MIC (μM) (B. subtilis): B. subtilis, 50 μM | Activities (microorganisms [2]): B M

NYRLVNAIFSKIFKKKFIKF [K-7]
Organism MIC (μM) (S. mutans): S. mutans, 12.5 μM

PDAPRTCYHKPILAALSRIVVTDR [PF-524]
Organism MIC (μM) (S. pneumoniae): S. pneumoniae, 50 μM | Target(s) (microorganisms [1]): S. epidermidis and E. coli and P. aeruginosa and C. albicans and MRSA and S. pneumoniae and E. faecalis and C. jeikeium | Organism, effect (microorganisms [3]; E. coli): E. coli (M) | Organism, effect (microorganisms [3]; E. faecalis): E. faecalis (C) | Organism, effect (microorganisms [3]; MRSA): MRSA (C) | Organism, effect (microorganisms [3]; S. pneumoniae): S. pneumoniae (M) | Activities (microorganisms [2]): G B M

SFMPEIQKNTIPTQMK [PF-512]
Organism MIC (μM) (S. pneumoniae): S. pneumoniae, 50 μM | Target(s) (microorganisms [1]): S. pneumoniae; also recorded: C. jeikeium | Organism, effect (microorganisms [3]; S. pneumoniae): S. pneumoniae (H) | Activities (microorganisms [2]): G B M

SIGSMIGMYSFRHKTKHIKFTFGIPFILFLQFLLVYFYILK [PF-319]
Target(s) (microorganisms [1]): S. epidermidis; also recorded: B. subtilis; also recorded: C. difficile | Organism, effect: B. subtilis (microorganisms [3]): B. subtilis (C) | Organism, effect: S. epidermidis (microorganisms [3]): S. epidermidis (C) | Activities (microorganisms [2]): G B

VMQSLYVKPPLILVTKLAQQN [PF-511]
Organism MIC (μM) (S. pneumoniae): S. pneumoniae, 50 μM | Target(s) (microorganisms [1]): E. coli; also recorded: P. aeruginosa; also recorded: S. pneumoniae; also recorded: C. jeikeium | Organism, effect (microorganisms [3]; S. pneumoniae): S. pneumoniae (H) | Activities (microorganisms [2]): G B M

VWENRKKYLENEIERHNVFLKLGQEVIKGLNALASRGR [PF-257]
Target(s) (microorganisms [1]): S. epidermidis | Organism, effect: M. luteus (microorganisms [3]): M. luteus (R) | Activities (microorganisms [2]): G B

VYRKRKSILKIYAKLKGWH [K-2]
Organism MIC (μM) (S. mutans): S. mutans, 12.5 μM

VYSFLYVLVIVRKLLSMKKRIERL [PF-499]
Target(s) (microorganisms [1]): S. mutans; also recorded: E. coli | Organism MIC (μM) (B. subtilis): B. subtilis, 50 μM | Activities (microorganisms [2]): B M

B1: PF-389: peptide having multiple activities (peptide)
chain 1: GLQFKEIAEEFHITTTALQQWHKDNGYPIYNKNNRK
chain 2: GLQFKEIAEEFHITTTALQQWHKDNGYPIYNKNNRK
modifications: Peptide with targeting and/or antimicrobial activity
Target(s) (microorganisms [1]): S. epidermidis and C. albicans and MRSA and S. pneumoniae and E. faecalis and C. jeikeium | Organism, effect: C. jejuni (microorganisms [3]; C. jejuni): C. jejuni (R) | Organism, effect: E. faecalis (microorganisms [3]; E. faecalis): E. faecalis (R) | Organism, effect: MRSA (microorganisms [3]; MRSA): MRSA (C) | Organism, effect: S. epidermidis (microorganisms [3]): S. epidermidis (R) | Organism, effect: S. pneumoniae (microorganisms [3]; S. pneumoniae): S. pneumoniae (D) | Activities (microorganisms [2]): G B

B2: PF-C180: peptide having multiple activities (peptide)
chain 1: TVEELDKAFTWGAAAALAIGVIAINVGLAAGYCYNNNDVF
chain 2: TVEELDKAFTWGAAAALAIGVIAINVGLAAGYCYNNNDVF
modifications: Peptide with targeting and/or antimicrobial activity
Target(s) (microorganisms [1]): F. nucleatum; also recorded: P. gingivalis; also recorded: S. mutans; also recorded: T. denticola | Organism, effect (microorganisms [3]; P. gingivalis): P. gingivalis (R) | Organism, effect (microorganisms [3]; S. mutans): S. mutans (S) | Activities (microorganisms [2]): G B

B3: PF-C181: peptide having multiple activities (peptide)
chain 1: KMRAGQVVFIYKLILVLLFYVLQKLFDLKKGCF
chain 2: KMRAGQVVFIYKLILVLLFYVLQKLFDLKKGCF
modifications: Peptide with targeting and/or antimicrobial activity
Target(s) (microorganisms [1]): P. gingivalis | Organism, effect (microorganisms [3]; F. nucleatum): F. nucleatum (T) | Activities (microorganisms [2]): G B

B4: PF-270: peptide having multiple activities (peptide)
chain 1: MYLTPYAWIAVGSIFAFSVTTIKIGDQNDEKQKSHKNDVHKR
chain 2: MYLTPYAWIAVGSIFAFSVTTIKIGDQNDEKQKSHKNDVHKR
modifications: Peptide with targeting and/or antimicrobial activity
Target(s) (microorganisms [1]): S. epidermidis; also recorded: M. luteus; also recorded: P. aeruginosa | Organism, effect: M. luteus (microorganisms [3]): M. luteus (H) | Activities (microorganisms [2]): G B

B5: PF-C120: peptide having multiple activities (peptide)
chain 1: ASLSTMTFKVMELKELIILLCGLTMLMIQTEFV
chain 2: ASLSTMTFKVMELKELIILLCGLTMLMIQTEFV
modifications: Peptide with targeting and/or antimicrobial activity
Target(s) (microorganisms [1]): A. naeslundii; also recorded: F. nucleatum; also recorded: P. gingivalis; also recorded: S. mutans; also recorded: T. denticola | Organism, effect (microorganisms [3]; F. nucleatum): F. nucleatum (T) | Activities (microorganisms [2]): G B

B6: PF-C091: peptide having multiple activities (peptide)
chain 1: ASNTPRFVRLTLFNFYSKIWNVTHLFLFNNL
chain 2: ASNTPRFVRLTLFNFYSKIWNVTHLFLFNNL
modifications: Peptide with targeting and/or antimicrobial activity
Target(s) (microorganisms [1]): A. naeslundii; also recorded: F. nucleatum; also recorded: P. gingivalis; also recorded: S. mutans; also recorded: T. denticola | Organism, effect (microorganisms [3]; F. nucleatum): F. nucleatum (T) | Activities (microorganisms [2]): G B

Reference: patent US20110039763A1, “TARGETED ANTIMICROBIAL MOIETIES” (C3 JIAN, INC., priority 2009, published 2011)
